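Grown in 96-well plates, cells were treated for 48 hours with each compound at five concentrations. Insufficient inhibition: endpoint recorded as highest concentration tested. Here, GI50 denotes the concentration required for 50% inhibition of growth. TGI marks complete inhibition of growth.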
Tests used:
Experiment in all cases: NCI anticancer screen, dose series, 48 h
[1] = tested on: SF-295 CNS
[2] = tested on: COLO 205 colon
[3] = tested on: OVCAR-5 ovarian
[4] = tested on: HCT-116 colon
[5] = tested on: A549 NSCLC
[6] = tested on: UACC-62 melanoma
[7] = tested on: NCI-H460 lung
[8] = tested on: CCRF-CEM leukemia
[9] = tested on: SN12C renal
[10] = tested on: NCI-H522 lung

SMILES | TGI [1] | TGI [2] | TGI [3] | TGI [4] | TGI [5] | TGI [6] | TGI [7] | TGI [8] | TGI [9] | TGI [10] | GI50 [1] | GI50 [2] | GI50 [3] | GI50 [5] | GI50 [6] | GI50 [10] | GI50 [7] | GI50 [8] | GI50 [9]
CCOC(=O)c1c(NC(=S)Nc2ccc(C)cc2)sc2c1CCN(C)C2 | > 100 µM | > 100 µM | > 100 µM | > 100 µM | > 100 µM | > 100 µM | > 100 µM | > 100 µM | > 100 µM |  |  |  |  |  |  |  |  |  | 
COC(=O)/C=C\S/C(=C(/c1ccccc1)n1ccc(C(=O)OC)n1)c1ccccc1 | > 100 µM | > 100 µM | > 100 µM | > 100 µM | > 100 µM | 10.3 µM | > 100 µM |  | > 100 µM | 48 µM |  |  |  |  |  |  |  |  | 
COc1cc(/C=C/c2cc(=O)cc(/C=C/c3ccc(O)c(OC)c3)o2)ccc1O | > 100 µM | > 100 µM | > 100 µM | > 100 µM | > 100 µM | > 100 µM | > 100 µM |  | > 100 µM | > 100 µM |  |  |  |  |  |  |  |  | 
CCCC[C@@H]1CCN2C[C@@H](O)[C@@H](O)[C@H]2[C@@H]1O | > 100 µM | > 100 µM | > 100 µM | > 100 µM | > 100 µM | > 100 µM | > 100 µM | > 100 µM |  | > 100 µM |  |  |  |  |  |  |  |  | 
CC1OC(n2cc(F)c(=O)[nH]c2=O)C(O[Si](C)(C)C(C)(C)C)C1O[Si](C)(C)C(C)(C)C (configuration not stated) | 27.1 µM | 27.4 µM | 31.1 µM | 26.8 µM | 54.2 µM | 28.6 µM |  | > 100 µM | 24.9 µM | 16.8 µM |  |  |  |  |  |  |  |  | 
CN(C)c1nc(=NCc2ccccn2)ss1 | > 10 µM | > 10 µM | > 10 µM | > 10 µM | > 10 µM | > 10 µM | > 10 µM | > 10 µM | > 10 µM |  |  |  |  |  |  |  |  |  | 
CC1(C)[C@@H]2C[C@H]1c1cnc(-c3ccccn3)cc1[C@H]2C(O)[C@@H]1c2cc(-c3ccccn3)ncc2[C@H]2C[C@@H]1C2(C)C (some centres not stated) | 11.4 µM | 4.06 µM | 18 µM | 5.34 µM | 18.3 µM | 7.66 µM | 24.3 µM |  | 1.89 µM | 3.06 µM |  |  |  |  |  |  |  |  | 
Brc1ccc2c(c1)-c1nc3c(cc1CC2)CCc1ccc(Br)cc1-3 | > 100 µM | > 100 µM | > 100 µM | > 100 µM | > 100 µM |  | > 100 µM | > 100 µM | > 100 µM | > 100 µM |  |  |  |  |  |  |  |  | 
Cc1ccc([N+](=O)[O-])c2c(NCCCN(C)C)ccnc12 | > 100 µM | 31.8 µM | > 100 µM | > 100 µM | > 100 µM |  | 76.1 µM | > 100 µM | > 100 µM | 55.8 µM |  |  |  |  |  |  |  |  | 
N/C(CSCCSC/C(N)=N/O)=N\O |  | > 100 µM | > 100 µM | > 100 µM | > 100 µM | > 100 µM | > 100 µM | > 100 µM | > 100 µM | > 100 µM |  |  |  |  |  |  |  |  | 
CC(C)Cc1c(C#N)c(C#N)c(N)n1Cc1ccccc1 | > 100 µM | > 100 µM | > 100 µM | > 100 µM | > 100 µM | > 100 µM |  | > 100 µM | > 100 µM | > 100 µM |  |  |  |  |  |  |  |  | 
NNC(=O)c1cccc2c1Oc1ccccc1S2 | > 100 µM | > 100 µM |  | > 100 µM |  | > 100 µM | > 100 µM | > 100 µM |  |  |  |  |  |  |  |  |  |  | 
COc1cc(-c2c3c(cc4c2OCO4)[C@@H](Nc2ccc4c(c2)Cc2cc(N[C@@H]5c6cc7c(cc6C(c6cc(OC)c(O)c(OC)c6)[C@H]6C(=O)OC[C@H]56)OCO7)ccc2-4)[C@H]2COC(=O)[C@@H]2C3)cc(OC)c1O (some centres not stated) | 42.3 µM | 28.7 µM | 88.3 µM | 57 µM | > 100 µM |  | > 100 µM | > 100 µM | > 100 µM |  |  |  |  |  |  |  |  |  | 
Nc1nc(Nc2ccc(OCc3cccc(F)c3)cc2)c2c(n1)[nH]c1ccc(O)cc12 | 7.63 µM | 5.98 µM | 14.5 µM |  | 17.8 µM | 4.09 µM | 9.37 µM | 9.62 µM | 4.56 µM | 4.67 µM | 2.5 µM | 2.42 µM | 3.38 µM | 4.13 µM | 1.95 µM | 1.99 µM | 3.25 µM | 3.03 µM | 2.08 µM
Cc1cc(C)nc(NS(=O)(=O)c2ccc(Nc3c4ccccc4nc4c(C(=O)N5CCN(CCOS(C)(=O)=O)CC5)ccc(Cl)c34)cc2)n1 | > 100 µM | > 100 µM | > 100 µM | > 100 µM | > 100 µM | > 100 µM | > 100 µM | > 100 µM | > 100 µM |  |  |  |  |  |  |  |  |  | 
NC(=O)NC(=NCc1ccccc1)NCc1ccccc1 | > 100 µM | > 100 µM |  | > 100 µM | > 100 µM | > 100 µM | > 100 µM |  | > 100 µM | > 100 µM |  |  |  |  |  |  |  |  | 
COC(=O)/C(=N\NC(=S)NN)C(C(=O)C(=O)Nc1ccccc1C(N)=O)c1nc2ccccc2[nH]c1=O (configuration not stated) | > 100 µM | > 100 µM | > 100 µM | > 100 µM | > 100 µM | > 100 µM |  | > 100 µM | > 100 µM | > 100 µM |  |  |  |  |  |  |  |  | 
NC(=S)N=Nc1c(O)cc(Nc2ccc(Cl)cc2Cl)c2ccccc12 | 45.9 µM | > 100 µM | > 100 µM | > 100 µM | > 100 µM | 29.4 µM | > 100 µM |  | > 100 µM |  |  |  |  |  |  |  |  |  | 
COC(=O)C1=C(C(=O)OC)C2(C)CCC(=O)C1O2 (configuration not stated) | > 10 µM | > 10 µM | > 10 µM | > 10 µM | > 10 µM | > 10 µM | > 10 µM | > 10 µM | > 10 µM |  |  |  |  |  |  |  |  |  | 
NS(=O)(=O)c1nnc(NSc2ccc([N+](=O)[O-])cc2)s1 | > 100 µM | > 100 µM | > 100 µM | > 100 µM | > 100 µM | > 100 µM | > 100 µM |  | > 100 µM | 44.3 µM |  |  |  |  |  |  |  |  | 
COC(=O)c1cc(C(=O)OC)cc(-c2ccc3c(c2)-c2nc4c(c(-c5ccc(OC)cc5)c2CC3)CCc2ccc(-c3cc(C(=O)OC)cc(C(=O)OC)c3)cc2-4)c1 | > 100 µM | > 100 µM | 31.8 µM | > 100 µM | > 100 µM | > 100 µM | > 100 µM |  | > 100 µM | > 100 µM |  |  |  |  |  |  |  |  | 
